Data on three compounds can be found in ChEMBL document CHEMBL4823291, “Discovery of 5,6,7,8-tetrahydropyrido[3,4-d]pyrimidine derivatives as novel selective Axl inhibitors” (Bioorg Med Chem Lett, 2021).

Broadly, the IC50 is the concentration that inhibits the measured activity by half. A higher IC50 goes with lower potency.

The first assay is filed under the species Homo sapiens. The assay can be described thus: Ratio of IC50 for Mer (unknown origin) to IC50 for Axl (unknown origin).
Take `CC(C)n1cc(C(=O)Nc2ccc(Oc3ncnc4c3CN(CC3CCOCC3)C4)c(F)c2)c(=O)n(-c2ccc(F)cc2)c1=O`: the Ratio IC50 came to 4.

Take `CC(C)n1cc(C(=O)Nc2ccc(Oc3ncnc4c3CN(C(=O)CN3CCN(C)CC3)C4)c(F)c2)c(=O)n(-c2ccc(F)cc2)c1=O`: the Ratio IC50 was 5.5.

Turning to `CC(C)n1cc(C(=O)Nc2ccc(Oc3ncnc4c3CCN(CC(=O)N3CCC3)C4)c(F)c2)c(=O)n(-c2ccc(F)cc2)c1=O`, the Ratio IC50 worked out at 14.

Another assay deals with T1, Tyrosine-protein kinase receptor UFO (Homo sapiens, UniProt P30530).
T1 sequence (P30530 whole entry): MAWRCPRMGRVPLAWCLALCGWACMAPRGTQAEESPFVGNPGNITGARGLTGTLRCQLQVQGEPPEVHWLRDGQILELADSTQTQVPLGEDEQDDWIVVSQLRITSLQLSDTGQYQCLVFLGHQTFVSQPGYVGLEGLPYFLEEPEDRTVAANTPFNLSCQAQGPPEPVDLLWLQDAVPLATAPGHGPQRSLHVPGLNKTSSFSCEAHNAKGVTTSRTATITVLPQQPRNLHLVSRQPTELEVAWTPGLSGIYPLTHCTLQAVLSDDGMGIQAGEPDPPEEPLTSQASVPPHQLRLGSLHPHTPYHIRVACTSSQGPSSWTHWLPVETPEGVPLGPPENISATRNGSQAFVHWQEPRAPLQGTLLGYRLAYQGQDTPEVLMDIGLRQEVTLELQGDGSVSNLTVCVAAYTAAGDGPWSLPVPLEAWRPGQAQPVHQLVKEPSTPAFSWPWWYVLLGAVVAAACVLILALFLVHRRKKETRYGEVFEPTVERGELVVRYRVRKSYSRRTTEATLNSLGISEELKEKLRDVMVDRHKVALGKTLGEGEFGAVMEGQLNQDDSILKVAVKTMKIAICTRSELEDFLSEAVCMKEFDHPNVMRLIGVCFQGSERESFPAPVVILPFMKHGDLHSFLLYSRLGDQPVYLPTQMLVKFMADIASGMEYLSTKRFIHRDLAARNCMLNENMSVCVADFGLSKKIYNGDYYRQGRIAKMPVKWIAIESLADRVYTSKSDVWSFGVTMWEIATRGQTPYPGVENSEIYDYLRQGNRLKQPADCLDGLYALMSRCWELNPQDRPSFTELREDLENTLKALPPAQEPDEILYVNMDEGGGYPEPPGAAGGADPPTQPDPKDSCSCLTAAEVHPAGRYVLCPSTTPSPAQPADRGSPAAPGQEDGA
The assay can be described thus: Inhibition of Axl (unknown origin) by cell free assay.
In the case of `CC(C)n1cc(C(=O)Nc2ccc(Oc3ncnc4c3CN(CC3CCOCC3)C4)c(F)c2)c(=O)n(-c2ccc(F)cc2)c1=O`, half-maximal inhibition (IC50) was put at 8.6 nM.

`CC(C)n1cc(C(=O)Nc2ccc(Oc3ncnc4c3CN(C(=O)CN3CCN(C)CC3)C4)c(F)c2)c(=O)n(-c2ccc(F)cc2)c1=O` displayed an IC50 of 6 nM.

As for `CC(C)n1cc(C(=O)Nc2ccc(Oc3ncnc4c3CCN(CC(=O)N3CCC3)C4)c(F)c2)c(=O)n(-c2ccc(F)cc2)c1=O`, the IC50 was determined as 14 nM.

The next assay relates to BaF3. The assay can be described thus: Ratio of IC50 for Mer in mouse BaF3 cells to IC50 for Axl in mouse BaF3 cells. In kind it is cell-based.
On to `CC(C)n1cc(C(=O)Nc2ccc(Oc3ncnc4c3CN(CC3CCOCC3)C4)c(F)c2)c(=O)n(-c2ccc(F)cc2)c1=O`, for which the Ratio IC50 stood at 2.6.

As for `CC(C)n1cc(C(=O)Nc2ccc(Oc3ncnc4c3CN(C(=O)CN3CCN(C)CC3)C4)c(F)c2)c(=O)n(-c2ccc(F)cc2)c1=O`, the Ratio IC50 came to 2.6.

In the case of `CC(C)n1cc(C(=O)Nc2ccc(Oc3ncnc4c3CCN(CC(=O)N3CCC3)C4)c(F)c2)c(=O)n(-c2ccc(F)cc2)c1=O`, the Ratio IC50 was 5.6.

For a further assay, the target named is T2, Tyrosine-protein kinase receptor UFO (Mus musculus, UniProt Q00993).
T2 sequence (Q00993 whole entry): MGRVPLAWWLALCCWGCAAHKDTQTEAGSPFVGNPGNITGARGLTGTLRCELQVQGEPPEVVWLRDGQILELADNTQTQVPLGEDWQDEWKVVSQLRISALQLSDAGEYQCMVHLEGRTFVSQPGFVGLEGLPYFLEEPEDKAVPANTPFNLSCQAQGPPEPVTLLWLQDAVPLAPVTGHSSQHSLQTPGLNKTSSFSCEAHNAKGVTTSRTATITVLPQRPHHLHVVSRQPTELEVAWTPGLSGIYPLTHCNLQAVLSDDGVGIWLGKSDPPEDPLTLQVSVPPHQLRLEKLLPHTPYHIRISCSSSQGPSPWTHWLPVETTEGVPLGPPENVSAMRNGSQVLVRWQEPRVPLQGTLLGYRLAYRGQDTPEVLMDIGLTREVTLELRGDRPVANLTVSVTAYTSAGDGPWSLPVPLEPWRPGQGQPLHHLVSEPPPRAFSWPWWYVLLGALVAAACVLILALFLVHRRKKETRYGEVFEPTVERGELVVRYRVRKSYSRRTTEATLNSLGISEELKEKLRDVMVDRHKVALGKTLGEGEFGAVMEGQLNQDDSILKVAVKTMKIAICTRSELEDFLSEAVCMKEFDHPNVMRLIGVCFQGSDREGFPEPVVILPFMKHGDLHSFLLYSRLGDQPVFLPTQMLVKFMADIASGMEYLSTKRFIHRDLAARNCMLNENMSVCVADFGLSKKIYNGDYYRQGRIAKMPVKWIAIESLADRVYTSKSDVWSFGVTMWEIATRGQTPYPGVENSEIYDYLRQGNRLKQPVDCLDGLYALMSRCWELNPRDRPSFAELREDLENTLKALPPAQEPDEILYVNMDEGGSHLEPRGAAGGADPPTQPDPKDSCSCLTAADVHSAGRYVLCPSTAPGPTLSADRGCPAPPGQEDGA
As to the kind of experiment: Inhibition of Axl in mouse BaF3 cells. In kind it is cell-based.
For the compound `CC(C)n1cc(C(=O)Nc2ccc(Oc3ncnc4c3CN(CC3CCOCC3)C4)c(F)c2)c(=O)n(-c2ccc(F)cc2)c1=O`, the IC50 was found to be 93 nM.

For the compound `CC(C)n1cc(C(=O)Nc2ccc(Oc3ncnc4c3CN(C(=O)CN3CCN(C)CC3)C4)c(F)c2)c(=O)n(-c2ccc(F)cc2)c1=O`, 42 nM corresponded to half-maximal inhibition (IC50).

Consider `CC(C)n1cc(C(=O)Nc2ccc(Oc3ncnc4c3CCN(CC(=O)N3CCC3)C4)c(F)c2)c(=O)n(-c2ccc(F)cc2)c1=O`, for which it took 66 nM to reach half-maximal inhibition (IC50).

In the next assay the target is T3, Tyrosine-protein kinase Mer (Mus musculus, UniProt Q60805).
T3 sequence (Q60805 whole entry): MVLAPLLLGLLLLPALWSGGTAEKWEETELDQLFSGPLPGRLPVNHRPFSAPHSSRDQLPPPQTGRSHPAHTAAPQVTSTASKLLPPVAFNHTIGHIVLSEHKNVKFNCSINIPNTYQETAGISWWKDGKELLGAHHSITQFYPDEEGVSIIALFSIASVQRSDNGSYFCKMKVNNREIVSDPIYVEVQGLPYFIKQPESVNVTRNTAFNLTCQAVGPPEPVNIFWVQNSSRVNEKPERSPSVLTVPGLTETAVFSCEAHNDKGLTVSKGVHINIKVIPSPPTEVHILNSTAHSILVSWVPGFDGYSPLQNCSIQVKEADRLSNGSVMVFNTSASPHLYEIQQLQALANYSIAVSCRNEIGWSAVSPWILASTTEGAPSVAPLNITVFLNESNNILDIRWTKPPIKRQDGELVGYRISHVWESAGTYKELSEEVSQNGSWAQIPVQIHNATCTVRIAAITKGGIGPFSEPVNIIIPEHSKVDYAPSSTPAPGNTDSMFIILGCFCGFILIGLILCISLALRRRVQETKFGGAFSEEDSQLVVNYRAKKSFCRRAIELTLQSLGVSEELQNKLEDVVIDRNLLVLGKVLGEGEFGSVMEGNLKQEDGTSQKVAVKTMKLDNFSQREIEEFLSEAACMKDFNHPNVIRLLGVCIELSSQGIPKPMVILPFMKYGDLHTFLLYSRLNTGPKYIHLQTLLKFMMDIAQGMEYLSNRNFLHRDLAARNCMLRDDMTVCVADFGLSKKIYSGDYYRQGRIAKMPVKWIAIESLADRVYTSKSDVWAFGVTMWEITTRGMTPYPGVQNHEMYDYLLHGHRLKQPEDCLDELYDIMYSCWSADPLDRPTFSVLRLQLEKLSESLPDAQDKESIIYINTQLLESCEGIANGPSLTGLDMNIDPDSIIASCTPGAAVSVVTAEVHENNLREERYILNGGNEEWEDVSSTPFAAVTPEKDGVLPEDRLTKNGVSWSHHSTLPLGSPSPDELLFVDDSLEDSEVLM
The assay can be described thus: Inhibition of Mer in mouse BaF3 cells. The class given is cell-based.
`CC(C)n1cc(C(=O)Nc2ccc(Oc3ncnc4c3CN(CC3CCOCC3)C4)c(F)c2)c(=O)n(-c2ccc(F)cc2)c1=O` had an IC50 of 240 nM.

Turning to `CC(C)n1cc(C(=O)Nc2ccc(Oc3ncnc4c3CN(C(=O)CN3CCN(C)CC3)C4)c(F)c2)c(=O)n(-c2ccc(F)cc2)c1=O`, it took 110 nM to reach half-maximal inhibition (IC50).

The compound `CC(C)n1cc(C(=O)Nc2ccc(Oc3ncnc4c3CCN(CC(=O)N3CCC3)C4)c(F)c2)c(=O)n(-c2ccc(F)cc2)c1=O` showed an IC50 of 370 nM.

A further assay deals with T4, Tyrosine-protein kinase Mer (Homo sapiens, UniProt Q12866).
T4 sequence (Q12866 whole entry): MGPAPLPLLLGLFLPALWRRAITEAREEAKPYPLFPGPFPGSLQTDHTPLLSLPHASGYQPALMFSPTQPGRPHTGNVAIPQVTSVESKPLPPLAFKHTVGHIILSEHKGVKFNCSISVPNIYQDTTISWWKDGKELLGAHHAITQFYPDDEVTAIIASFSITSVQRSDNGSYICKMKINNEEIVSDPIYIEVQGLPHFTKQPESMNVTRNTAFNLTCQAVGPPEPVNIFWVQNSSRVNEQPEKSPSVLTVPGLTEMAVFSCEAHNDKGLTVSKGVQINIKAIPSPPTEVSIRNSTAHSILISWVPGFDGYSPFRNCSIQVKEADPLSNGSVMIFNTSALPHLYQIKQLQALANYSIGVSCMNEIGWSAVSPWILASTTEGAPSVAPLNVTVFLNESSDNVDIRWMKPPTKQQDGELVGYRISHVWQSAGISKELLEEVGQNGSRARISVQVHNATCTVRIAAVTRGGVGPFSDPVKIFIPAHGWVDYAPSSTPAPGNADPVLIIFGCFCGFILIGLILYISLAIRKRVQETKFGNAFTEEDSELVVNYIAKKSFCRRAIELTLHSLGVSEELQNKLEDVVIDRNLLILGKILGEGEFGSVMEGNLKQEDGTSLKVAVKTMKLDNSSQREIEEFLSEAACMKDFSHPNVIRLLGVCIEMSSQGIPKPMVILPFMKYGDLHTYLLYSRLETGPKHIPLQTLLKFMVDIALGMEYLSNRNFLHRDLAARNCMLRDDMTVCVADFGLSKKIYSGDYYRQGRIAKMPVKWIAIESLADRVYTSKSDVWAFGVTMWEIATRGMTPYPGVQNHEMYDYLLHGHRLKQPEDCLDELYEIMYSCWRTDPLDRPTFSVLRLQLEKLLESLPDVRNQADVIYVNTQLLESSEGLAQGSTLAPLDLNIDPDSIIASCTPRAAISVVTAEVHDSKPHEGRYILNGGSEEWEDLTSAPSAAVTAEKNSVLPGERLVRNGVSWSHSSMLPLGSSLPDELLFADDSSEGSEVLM
The assay can be described thus: Inhibition of Mer (unknown origin) by cell free assay.
Compound `CC(C)n1cc(C(=O)Nc2ccc(Oc3ncnc4c3CN(CC3CCOCC3)C4)c(F)c2)c(=O)n(-c2ccc(F)cc2)c1=O` displayed an IC50 of 34 nM.

As for `CC(C)n1cc(C(=O)Nc2ccc(Oc3ncnc4c3CN(C(=O)CN3CCN(C)CC3)C4)c(F)c2)c(=O)n(-c2ccc(F)cc2)c1=O`, the IC50 stood at 33 nM.

Compound `CC(C)n1cc(C(=O)Nc2ccc(Oc3ncnc4c3CCN(CC(=O)N3CCC3)C4)c(F)c2)c(=O)n(-c2ccc(F)cc2)c1=O` gave an IC50 of 200 nM.
